The target in this experiment is T1, G protein-coupled receptor 119 (GPR-119) (Mesocricetus auratus, UniProt A0A1U8CD06).
T1 construct: hamster-derived β-cells containing G protein-coupled receptor 119 (GPR-119), HIT-T15 cells; host or cells: HIT-T15 (hamster pancreatic β-cells)
T1 sequence (A0A1U8CD06 1-334): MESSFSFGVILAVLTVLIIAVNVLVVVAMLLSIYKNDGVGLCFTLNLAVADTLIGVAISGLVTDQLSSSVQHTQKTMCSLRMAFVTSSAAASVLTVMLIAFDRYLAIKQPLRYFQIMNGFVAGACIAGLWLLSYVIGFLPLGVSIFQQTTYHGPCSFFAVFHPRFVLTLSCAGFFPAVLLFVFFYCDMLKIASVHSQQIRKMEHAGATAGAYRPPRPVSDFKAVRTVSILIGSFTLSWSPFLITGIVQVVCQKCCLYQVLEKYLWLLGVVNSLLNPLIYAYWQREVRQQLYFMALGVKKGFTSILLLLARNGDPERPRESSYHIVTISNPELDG
The experiment is described as follows: Evaluation of cAMP activity in HIT-T15 cells (HTRF cAMP dynamic kit). The experiment is classed as cell-based, hamster. The following applies: cAMP activation. In short, it runs like this: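 HIT-T15 cells, 60,000/well, treated next day with compound at six concentrations ([…]) for 1 h at 37° C. Lysate cAMP quantified by HTRF competitive immunoassay (D2-cAMP, cryptate anti-cAMP); activity taken as change in FRET signal relative to DMSO.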
For orientation: TR-FRET usually uses a lanthanide donor and a delayed reading to cut background.

Setting [1] is: 1 h at 37° C., six concentrations, read-out: EC50.

Read-outs that look alike come from different tables or passages of the source.

One may read the EC50 as the concentration that produces a half-maximal response. On to `CC(C)c1noc(N2CCC(COc3ccc(C4=CCC(C(=O)N5CC[C@H](F)C5)CC4)nc3)CC2)n1` (stereo partly drawn) [Example 102, ((S)-3-fluoropyrrolidin-1-yl)(4-(5-((1-(3-isopropyl-1,2,4-oxadiazol-5-yl)piperidin-4-yl)methoxy)pyridin-2-yl)cyclohex-3-enyl)methanone], for which the EC50 under setting [1] was determined as 52 nM.
On the same count and under the same terms, next, `CCc1cnc(N2CCC(COc3ccc(C4=CCC(C(=O)NCC(F)(F)F)CC4)cc3)CC2)nc1` (stereo not shown) [Example 103, 4-(4-((1-(5-ethylpyrimidin-2-yl)piperidin-4-yl)methoxy)phenyl)-N-(2,2,2-trifluoroethyl)cyclohex-3-enecarboxamide]: 75 nM; `CCc1cnc(N2CCC(COc3ccc(C4=CCC(C(=O)NCCF)CC4)cc3)CC2)nc1` (stereo not shown) [Example 104, 4-(4-((1-(5-ethylpyrimidin-2-yl)piperidin-4-yl)methoxy)phenyl)-N-(2-fluoroethyl)cyclohex-3-enecarboxamide]: 70 nM.
In the case of `CCc1cnc(N2CCC(COc3ccc(C4=CCC(C(=O)N5CCC[C@H]5C(N)=O)CC4)cc3)CC2)nc1` (stereo partly drawn) [Example 105, (2S)-1-(4-(4-((1-(5-ethylpyrimidin-2-yl)piperidin-4-yl)methoxy)phenyl)cyclohex-3-enecarbonyl)pyrrolidine-2-carboxamide], the half-maximal effective concentration (EC50) under setting [1] stood at 43 nM and the EC50 (read-out: EC50 value) is at most 50 nM.
In the same order, the values of `CCc1cnc(N2CCC(COc3ccc(C4=CCC(C(=O)N5CCC[C@H]5C#N)CC4)cc3)CC2)nc1` (stereo partly drawn) [Example 106, (2S)-1-(4-(4-((1-(5-ethylpyrimidin-2-yl)piperidin-4-yl)methoxy)phenyl)cyclohex-3-enecarbonyl)pyrrolidine-2-carbonitrile] are 22 nM and at most 50 nM.
The matching figures for `CC(C)(C)OC(=O)N1CCC(COc2ccc(C3=CCC(C(=O)N4CCC[C@H]4C(N)=O)CC3)cc2F)CC1` (stereo partly drawn) [Example 107, tert-butyl 4-((4-(4-((S)-2-carbamoylpyrrolidine-1-carbonyl)cyclohex-1-enyl)-2-fluorophenoxy)methyl)piperidine-1-carboxylate]: 35 nM and at most 50 nM.
On to `CC(C)c1noc(N2CCC(COc3ccc(C4=CCC(C(=O)N5CCC[C@H]5C(N)=O)CC4)cc3F)CC2)n1` (stereo partly drawn) [Example 108, (2S)-1-(4-(3-fluoro-4-((1-(3-isopropyl-1,2,4-oxadiazol-5-yl)piperidin-4-yl)methoxy)phenyl)cyclohex-3-enecarbonyl)pyrrolidine-2-carboxamide], for which the 50% effective concentration (EC50) under setting [1] is 55 nM.
Regarding `COC(=O)CNC(=O)C1CC=C(c2ccc(OCC3CCN(c4nc(C(C)C)no4)CC3)c(F)c2)CC1` (stereo not shown) [Example 109], under setting [1], the half-maximal effective concentration (EC50) stood at 190 nM.
In the case of `CCOC(=O)CCNC(=O)C1CC=C(c2ccc(OCC3CCN(c4nc(C(C)C)no4)CC3)c(F)c2)CC1` (stereo not shown) [Example 110, ethyl 3-(4-(3-fluoro-4-((1-(3-isopropyl-1,2,4-oxadiazol-5-yl)piperidin-4-yl)methoxy)phenyl)cyclohex-3-enecarboxamido)propanoate], the half-maximal effective concentration (EC50) under setting [1] amounted to 110 nM.
As to `CC(C)c1noc(N2CCC(COc3ccc(C4=CCC(C(=O)NCCC(=O)O)CC4)cc3F)CC2)n1` (stereo not shown) [Example 111, 3-(4-(3-fluoro-4-((1-(3-isopropyl-1,2,4-oxadiazol-5-yl)piperidin-4-yl)methoxy)phenyl)cyclohex-3-enecarboxamido)propanoic acid], under setting [1], the half-maximal effective concentration (EC50) worked out at 1500 nM.
Consider `CC(C)c1noc(N2CCC(COc3ccc(C4=CCC(C(=O)NCC(=O)N5CCOCC5)CC4)cc3F)CC2)n1` (stereo not shown) [Example 112, 4-(3-fluoro-4-((1-(3-isopropyl-1,2,4-oxadiazol-5-yl)piperidin-4-yl)methoxy)phenyl)-N-(2-morpholino-2-oxoethyl)cyclohex-3-enecarboxamide], for which the EC50 under setting [1] is 70 nM.
On the same count and under the same terms, next, `CC(C)c1noc(N2CCC(COc3ccc(C4=CCC(C(=O)NCCC(=O)N5CCOCC5)CC4)cc3F)CC2)n1` (stereo not shown) [Example 113, 4-(3-fluoro-4-((1-(3-isopropyl-1,2,4-oxadiazol-5-yl)piperidin-4-yl)methoxy)phenyl)-N-(3-morpholino-3-oxopropyl)cyclohex-3-enecarboxamide]: 68 nM.
Regarding `CC(C)(C)OC(=O)N1CCC(COc2ccc(C3=CCC(C(=O)N4CCC[C@H]4C#N)CC3)cc2F)CC1` (stereo partly drawn) [Example 114, tert-butyl 4-((4-(4-((S)-2-cyanopyrrolidine-1-carbonyl)cyclohex-1-enyl)-2-fluorophenoxy)methyl)piperidine-1-carboxylate], the EC50 runs as follows: under setting [1], 14 nM; (read-out: EC50 value) at most 50 nM.
With `CC(C)c1noc(N2CCC(COc3ccc(C4=CCC(C(=O)N5CCC[C@H]5C#N)CC4)cc3F)CC2)n1` (stereo partly drawn) [Example 115, (2S)-1-(4-(3-fluoro-4-((1-(3-isopropyl-1,2,4-oxadiazol-5-yl)piperidin-4-yl)methoxy)phenyl)cyclohex-3-enecarbonyl)pyrrolidine-2-carbonitrile], the EC50 under setting [1] amounted to 15 nM and the EC50 (read-out: EC50 value) is at most 50 nM.
In the same order, the values of `CC(C)c1noc(N2CCC(COc3ccc(C4=CCC(C(=O)N5CCC[C@@H]5C(N)=O)CC4)cc3F)CC2)n1` (stereo partly drawn) [Example 116, (2R)-1-(4-(3-fluoro-4-((1-(3-isopropyl-1,2,4-oxadiazol-5-yl)piperidin-4-yl)methoxy)phenyl)cyclohex-3-enecarbonyl)pyrrolidine-2-carboxamide] are 28 nM and at most 50 nM.
The matching figures for `CC(C)c1noc(N2CCC(COc3ccc(C4=CCC(C(=O)N5CCC[C@@H]5C#N)CC4)cc3F)CC2)n1` (stereo partly drawn) [Example 117, (2R)-1-(4-(3-fluoro-4-((1-(3-isopropyl-1,2,4-oxadiazol-5-yl)piperidin-4-yl)methoxy)phenyl)cyclohex-3-enecarbonyl)pyrrolidine-2-carbonitrile]: 11 nM and at most 50 nM.
On to `CC(C)c1noc(N2CCC(COc3ccc(C4=CCC(C(=O)NCCO)CC4)cc3F)CC2)n1` (stereo not shown) [Example 120, 4-(3-fluoro-4-((1-(3-isopropyl-1,2,4-oxadiazol-5-yl)piperidin-4-yl)methoxy)phenyl)-N-(2-hydroxyethyl)cyclohex-3-enecarboxamide], for which the concentration for a half-maximal effect (EC50) under setting [1] came out at 80 nM.
Same read-out and setting: next, `CC(C)c1noc(N2CCC(COc3ccc(C4=CCC(C(=O)NCC(=O)N5CCC[C@@H]5C(N)=O)CC4)cc3F)CC2)n1` (stereo partly drawn) [Example 121, (2R)-1-(2-(4-(3-fluoro-4-((1-(3-isopropyl-1,2,4-oxadiazol-5-yl)piperidin-4-yl)methoxy)phenyl)cyclohex-3-enecarboxamido)acetyl)pyrrolidine-2-carboxamide]: 500 nM; `CC(C)c1noc(N2CCC(COc3ccc(C4=CCC(C(=O)NCC(=O)N5CCC[C@@H]5C#N)CC4)cc3F)CC2)n1` (stereo partly drawn) [Example 122, N-(2-((R)-2-cyanopyrrolidin-1-yl)-2-oxoethyl)-4-(3-fluoro-4-((1-(3-isopropyl-1,2,4-oxadiazol-5-yl)piperidin-4-yl)methoxy)phenyl)cyclohex-3-enecarboxamide]: 130 nM.
On to `CCc1cnc(N2CCC(COc3ccc(C4=CCC(C(=O)N5CCN(C6CC6)CC5)CC4)cc3)CC2)nc1` (stereo not shown) [Example 123, (4-cyclopropylpiperazin-1-yl)(4-(4-((1-(5-ethylpyrimidin-2-yl)piperidin-4-yl)methoxy)phenyl)cyclohex-3-enyl)methanone], for which the EC50 was 35 nM under setting [1] and at most 50 nM (read-out: EC50 value).
For the compound `CCc1cnc(N2CCC(COc3ccc(C4=CCC(C(=O)N5CCN(CC6CC6)CC5)CC4)cc3)CC2)nc1` (stereo not shown) [Example 124, (4-(cyclopropylmethyl)piperazin-1-yl)(4-(4-((1-(5-ethylpyrimidin-2-yl)piperidin-4-yl)methoxy)phenyl)cyclohex-3-enyl)methanone], under setting [1], the EC50 is 100 nM.
Still for that read-out and setting: next, `C[C@H](O)CNC(=O)C1CC=C(c2ccc(OCC3CCN(C(=O)OC(C)(C)C)CC3)cc2F)CC1` (stereo partly drawn) [Example 125, tert-butyl 4-((3-fluoro-4-(4-((S)-2-hydroxypropylcarbamoyl)cyclohex-1-enyl)phenoxy)methyl)piperidine-1-carboxylate]: 70 nM; `C[C@@H](O)CNC(=O)C1CC=C(c2ccc(OCC3CCN(C(=O)OC(C)(C)C)CC3)cc2F)CC1` (stereo partly drawn) [Example 126, tert-butyl 4-((3-fluoro-4-(4-((R)-2-hydroxypropylcarbamoyl)cyclohex-1-enyl)phenoxy)methyl)piperidine-1-carboxylate]: 130 nM; `CCc1cnc(N2CCC(COc3ccc(C4=CCC(C(=O)N[C@@H](C)CO)CC4)cc3)CC2)nc1` (stereo partly drawn) [Example 127, 4-(4-((1-(5-ethylpyrimidin-2-yl)piperidin-4-yl)methoxy)phenyl)-N-((S)-1-hydroxypropan-2-yl)cyclohex-3-enecarboxamide]: 83 nM.
On the same count and under the same terms, under `CCc1cnc(N2CCC(COc3ccc(C4=CCC(C(=O)NC[C@H](O)CO)CC4)cc3)CC2)nc1` (stereo partly drawn) [Example 128, N-((S)-2,3-dihydroxypropyl)-4-(4-((1-(5-ethylpyrimidin-2-yl)piperidin-4-yl)methoxy)phenyl)cyclohex-3-enecarboxamide] stands 200 nM; under `C[C@H](CO)NC(=O)C1CC=C(c2ccc(OCC3CCN(C(=O)OC(C)(C)C)CC3)cc2F)CC1` (stereo partly drawn) [Example 129, tert-butyl 4-((3-fluoro-4-(4-((R)-1-hydroxypropan-2-ylcarbamoyl)cyclohex-1-enyl)phenoxy)methyl)piperidine-1-carboxylate], 140 nM.

The record behind these values is patent US9758527B2, “Cyclohexene derivative, preparation method therefor, and pharmaceutical composition for preventing or treating metabolic diseases, containing same as active ingredient” (HYUNDAI PHARM CO., LTD., priority 2014, dated 2017).
